Measurements published in the supplement of paper PMC10331698.
± gives the standard deviation of the averaged measurements.

What was measured:
Experiment in all cases: level (log10 ratio to DMSO vehicle control); higher = higher biomarker level / cell amount than vehicle control
Details in all cases: in DMSO
[1] = compound: COC(=O)C(F)(F)C(F)(F)OC(F)(C(F)(F)F)C(F)(F)OC(F)=C(F)F [Methyl perfluoro(3-(1-ethenyloxypropan-2-yloxy)propanoate)]
Protocol: (§1)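 BioMAP Diversity Plus panel of 12 human primary cell co-culture systems (3C, 4H, LPS, SAg, BT, BF4T, BE3C, CASM3C, HDF3CGF, KF3CT, MyoF, Mphg). Compounds were added 1 h before stimulation and left for 24 h (MyoF 48 h; BT 72 h for soluble read-outs or 6 d for IgG). Biomarkers were read by ELISA, cytotoxicity by SRB, PBMC viability and proliferation by Alamar Blue. Each well value was divided by the mean of 8 DMSO control wells on the same plate and log10 transformed; duplicate blinded samples were tested at 4 concentrations.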

[2] = compound: FC(F)(F)C(F)(F)C(F)(F)C(F)(F)C(F)(F)C(F)(F)C(F)(F)I [1-Iodopentadecafluoroheptane]
Protocol: as §1

[3] = compound: FC(F)(F)C(F)(F)CNCC(F)(F)C(F)(F)F [Bis(1H,1H-perfluoropropyl)amine]
Protocol: as §1

Nonafluoropentanamide = compound: NC(=O)C(F)(F)C(F)(F)C(F)(F)C(F)(F)F [Nonafluoropentanamide]
Protocol: as §1

[4] = compound: O=S(=O)(O)C(F)(F)C(F)(F)C(F)(F)C(F)(F)C(F)(F)C(F)(F)C(F)(F)C(F)(F)C(F)(F)C(F)(F)F [Sodium perfluorodecanesulfonate]
Protocol: as §1

[5] = compound: O=S(=O)(O)CCC(F)(F)C(F)(F)C(F)(F)C(F)(F)C(F)(F)C(F)(F)F [6:2 Fluorotelomer sulfonic acid]
Protocol: as §1

Test System | level (log10) ([1]; 6700 nM) | level (log10) ([1]; 20000 nM) | level (log10) ([2]; 6700 nM) | level (log10) ([2]; 20000 nM) | level (log10) ([3]; 6700 nM) | level (log10) ([3]; 20000 nM) | level (log10) ([3]; 60000 nM) | level (log10) (Nonafluoropentanamide; 6700 nM) | level (log10) (Nonafluoropentanamide; 20000 nM) | level (log10) (Nonafluoropentanamide; 60000 nM) | level (log10) ([4]; 1500 nM) | level (log10) ([4]; 4400 nM) | level (log10) ([4]; 13000 nM) | level (log10) ([4]; 40000 nM) | level (log10) ([5]; 6700 nM) | level (log10) ([5]; 20000 nM) | level (log10) ([5]; 60000 nM)
BE3C:CXCL8/IL-8 | 0.0495 ± 0.0021 | 0.09 ± 0.013 | -0.0175 ± 0.0078 | -0.007 ± 0.0057 | -0.041 ± 0.073 | -0.0325 ± 0.036 | -0.008 ± 0.03 | 0.0235 ± 0.019 | 0.004 ± 0.05 | 0.0245 ± 0.066 | 0.0135 ± 0.0035 | 0.0345 ± 0.0021 | 0.083 ± 0.021 | 0.0225 ± 0.037 | 0.021 ± 0.031 | -0.001 ± 0.021 | 0 ± 0.021
BE3C:CXCL9/MIG | -0.0035 ± 0.0035 | -0.019 ± 0.0099 | -0.0035 ± 0.021 | 0.003 ± 0.013 | -0.0065 ± 0.0035 | -0.0055 ± 0.00071 | 0.005 ± 0.021 | 0.015 ± 0.0071 | -0.001 ± 0.014 | 0.014 | 0.016 ± 0.0042 | 0.008 ± 0.0085 | 0.014 ± 0.0085 | 0.0005 ± 0.0092 | -0.005 ± 0.0014 | -0.004 ± 0.0042 | 0.0015 ± 0.011
BE3C:CXCL10/IP-10 | -0.02 ± 0.013 | -0.054 ± 0.013 | 0.01 ± 0.02 | 0.0195 ± 0.035 | -0.017 ± 0.035 | -0.0075 ± 0.028 | -0.001 ± 0.0028 | 0.0145 ± 0.021 | -0.005 ± 0.038 | -0.0095 ± 0.015 | -0.0045 ± 0.029 | -0.0165 ± 0.0021 | -0.076 ± 0.0042 | -0.201 ± 0.013 | 0.0015 ± 0.0021 | -0.0095 ± 0.0078 | -0.0125 ± 0.018
BE3C:HLA-DR | -0.0235 ± 0.042 | -0.0275 ± 0.032 | 0.0035 ± 0.0021 | 0.0015 ± 0.0078 | -0.0025 ± 0.012 | -0.0115 ± 0.0021 | 0.012 ± 0.031 | -0.005 ± 0.0042 | -0.016 ± 0.0071 | -0.016 ± 0.0057 | 0.0005 ± 0.013 | -0.02 ± 0.014 | -0.0755 ± 0.032 | -0.406 ± 0.041 | -0.0135 ± 0.021 | -0.0175 ± 0.012 | -0.024 ± 0.0099
BF4T:CCL2/MCP-1 | 0.041 ± 0.033 | -0.152 ± 0.32 | -0.0105 ± 0.0092 | 0.011 ± 0.02 | -0.004 ± 0.014 | -0.009 ± 0.027 | -0.0295 ± 0.015 | 0.001 ± 0.013 | -0.0615 ± 0.023 | -0.105 ± 0.03 | 0.0015 ± 0.011 | 0.008 ± 0.018 | 0.0125 ± 0.043 | 0.051 ± 0.0042 | 0.0035 ± 0.0064 | -0.024 ± 0.028 | -0.0335 ± 0.069
BF4T:CCL26/Eotaxin-3 | -0.007 | -0.069 ± 0.014 | -0.04 ± 0.048 | -0.0305 ± 0.042 | -0.0275 ± 0.026 | -0.0245 ± 0.0021 | -0.0055 ± 0.053 | -0.006 ± 0.0071 | -0.055 ± 0.0042 | -0.0525 ± 0.0092 | -0.0815 ± 0.026 | -0.131 ± 0.0078 | -0.23 ± 0.066 | -0.298 ± 0.013 | 0.001 ± 0.018 | -0.0535 ± 0.011 | -0.08 ± 0.078
BF4T:CD90 | -0.004 ± 0.017 | -0.0045 ± 0.0078 | 0.001 ± 0.016 | -0.0025 ± 0.0021 | -0.01 ± 0.0085 | -0.004 ± 0.0071 | 0.011 ± 0.018 | -0.0145 ± 0.015 | -0.0075 ± 0.0021 | -0.013 ± 0.0042 | -0.0085 ± 0.012 | -0.0055 ± 0.005 | -0.0065 ± 0.0035 | 0.002 ± 0.0057 | -0.029 ± 0.017 | -0.028 ± 0.0085 | -0.031 ± 0.0042
BF4T:CD106/VCAM-1 | -0.007 ± 0.071 | -0.091 ± 0.025 | -0.005 ± 0.011 | -0.031 ± 0.0028 | -0.034 ± 0.0057 | -0.034 ± 0.017 | 0.008 ± 0.069 | -0.015 ± 0.059 | -0.0485 ± 0.03 | -0.014 ± 0.017 | -0.0095 ± 0.021 | -0.0125 ± 0.069 | -0.096 ± 0.035 | -0.106 ± 0.028 | -0.0125 ± 0.04 | -0.0315 ± 0.0035 | -0.022 ± 0.057
BF4T:MMP-1 | 0.0055 ± 0.019 | 0.0095 ± 0.0021 | -0.0055 ± 0.018 | 0.0005 ± 0.0035 | -0.009 ± 0.0071 | -0.0005 ± 0.00071 | 0.01 ± 0.011 | -0.009 ± 0.0042 | -0.0005 ± 0.013 | -0.01 ± 0.0099 | 0.009 ± 0.013 | -0.0095 ± 0.0078 | 0.001 ± 0.0014 | 0.0245 ± 0.005 | -0.0085 ± 0.00071 | -0.0125 ± 0.0078 | 0.0065 ± 0.013
BF4T:MMP-3 | 0.0165 ± 0.018 | 0.102 ± 0.021 | -0.0345 ± 0.039 | -0.0315 ± 0.016 | -0.013 ± 0.0028 | -0.0125 ± 0.0092 | 0.001 ± 0.025 | -0.03 ± 0.0099 | -0.0415 ± 0.012 | -0.0105 ± 0.015 | -0.0175 ± 0.032 | -0.002 ± 0.0099 | 0.0175 ± 0.0078 | 0.054 ± 0.0042 | -0.0095 ± 0.074 | -0.0015 ± 0.0035 | 0.0515 ± 0.025
BF4T:MMP-9 | -0.0175 ± 0.018 | 0.0125 ± 0.069 | -0.0345 ± 0.063 | -0.019 ± 0.013 | -0.013 ± 0.0057 | -0.013 ± 0.0042 | 0.0085 ± 0.036 | -0.026 ± 0.068 | -0.051 ± 0.016 | 0.004 ± 0.017 | 0.0255 ± 0.0078 | -0.007 ± 0.045 | -0.0285 ± 0.015 | -0.058 ± 0.021 | -0.0015 ± 0.036 | -0.0095 ± 0.0078 | 0.018 ± 0.024
BF4T:PAI-I | -0.016 ± 0.0085 | -0.0175 ± 0.021 | -0.004 ± 0.0085 | -0.0235 ± 0.0092 | -0.008 ± 0.0014 | -0.005 | 0.006 ± 0.016 | -0.0145 ± 0.0064 | -0.0055 ± 0.0035 | 0.0015 ± 0.021 | -0.0015 ± 0.0092 | 0.0175 ± 0.005 | 0.0125 ± 0.0035 | 0.021 ± 0.0071 | 0.0075 ± 0.005 | -0.0235 ± 0.012 | -0.0265 ± 0.0078
BF4T:SRB | -0.005 ± 0.016 | 0.0035 ± 0.026 | -0.0085 ± 0.0092 | -0.008 ± 0.0014 | -0.004 ± 0.0071 | -0.0065 ± 0.0064 | 0.0005 ± 0.0078 | -0.018 ± 0.0042 | -0.017 ± 0.016 | -0.019 ± 0.0028 | 0.004 ± 0.0071 | -0.0055 ± 0.005 | 0 ± 0.0057 | 0.006 ± 0.016 | 0.0005 ± 0.00071 | -0.003 ± 0.0042 | -0.003 ± 0.0057
BF4T:tPA | -0.053 ± 0.025 | -0.046 ± 0.0028 | 0.022 ± 0.025 | -0.0085 ± 0.016 | -0.062 ± 0.035 | -0.054 ± 0.023 | -0.0335 ± 0.0035 | -0.021 ± 0.018 | -0.043 ± 0.023 | -0.0405 ± 0.0078 | 0.01 ± 0.0071 | 0.0175 ± 0.059 | 0.075 ± 0.018 | 0.068 ± 0.016 | -0.008 ± 0.027 | -0.036 ± 0.028 | -0.0355 ± 0.036
BF4T:uPA | -0.0075 ± 0.0064 | 0.02 ± 0.0028 | -0.0365 ± 0.016 | -0.026 ± 0.016 | -0.025 ± 0.011 | -0.0205 ± 0.013 | -0.0165 ± 0.0092 | -0.03 ± 0.023 | 0.009 ± 0.013 | 0.025 ± 0.0014 | 0.0165 ± 0.0035 | 0.013 ± 0.017 | 0.0415 ± 0.005 | 0.06 ± 0.027 | 0.0085 ± 0.019 | -0.013 ± 0.0028 | -0.001 ± 0.018
BT:B cell Proliferation | -0.009 ± 0.0099 | 0.01 ± 0.014 | -0.0045 ± 0.005 | 0.019 ± 0.0071 | -0.005 ± 0.04 | 0.0145 ± 0.00071 | 0.0285 ± 0.0035 | 0.032 ± 0.0028 | -0.023 ± 0.0042 | 0.0085 ± 0.0092 | 0.0005 ± 0.021 | 0.0065 ± 0.0078 | 0.0015 ± 0.0035 | 0.0125 ± 0.0078 | 0.0405 ± 0.066 | 0.031 ± 0.017 | 0.0625 ± 0.098
BT:PBMC Cytotoxicity | 0.0195 ± 0.036 | 0.049 ± 0.058 | 0.014 ± 0.0057 | 0.0075 ± 0.049 | 0.007 ± 0.013 | 0.005 ± 0.024 | 0.0125 ± 0.013 | 0.024 ± 0.0042 | 0.02 ± 0.0028 | 0.0155 ± 0.011 | -0.025 ± 0.023 | -0.005 ± 0.0042 | -0.0035 ± 0.026 | 0.007 ± 0.035 | 0.007 | 0.0235 ± 0.0064 | 0.045 ± 0.0014
